US20260234116A1, “CYTOTOXIC EPOXYKETONE COMPOUNDS, PRECURSORS, COMPOSITIONS, AND METHODS OF USE” (Memorial Sloan-Kettering Cancer Center, priority 2023, published 2026)

How the values were obtained:
EpnF [1] = molecular target: T1, EpnF (Streptomyces hygroscopicus, UniProt V5RMU9); assay: Semiquantitative epoxide capture assay (EpnF-catalyzed epoxyketone formation); type: biochemical; conditions: 1 μM EpnF, 250 μM β-ketoacid substrate, 1 h; positive control 11n (FIG. 1)
Description: Recombinant EpnF was diluted to 1 μM in 180 μL EpnF Buffer in an 1.5 mL Eppendorf tube. The β-ketoacid 11 was added at various concentrations to a total reaction volume of 200 μL. The mixture was incubated in a heated shaker at 37° C. and 225 rpm for 1 h. The reaction mixture (30 μL×3 technical replicates) was transferred to a white, opaque 96-well plate (PerkinElmer, OptiPlate-96). Each plate also contained 30 μL×3 technical replicates of EpnF Buffer as a negative control. To each well, 15 μL of 125 mM nicotinamide in EpnF Buffer was added and mixed by pipetting. The plate was sealed with an adhesive foil cover (VWR Adhesive Foil for Microplates) and heated in an oven at 80° C. for 1 h. The plate was cooled to rt and 25 μL of 15% (v/v) acetophenone in EtOH and 25 μL of 1 M potassium hydroxide in EtOH were added to each well, then mixed by pipetting. The plate was cooled on ice for 10 min, then 125 μL formic acid was added to each well. The plate was resealed and heated in an oven at 100° C. for 5 min. The plate was cooled on ice for 5-10 min, then analyzed (λex 370 nm, λem 430 nm) on a fluorescence plate reader (Molecular Devices Spectramax M3).
We adapted a reported epoxide capture assay [Nelis, H. J. C. F.; Sinsheimer, J. E. (1981) A sensitive fluorimetric procedure for the determination of aliphatic epoxides under physiological conditions. Anal. Biochem. 115, 151-157.] to 96-well plate format to detect formation of the epoxyketone products semiquantitatively. Each β-ketoacid substrate 11 was incubated with recombinant, purified EpnF (1 h), then reacted with nicotinamide and acetophenone (1 h) to form a fluorescent 1,6-naphthyridinone 24. The fluorescent signals were normalized to that resulting from the known substrate β-ketoacid 11n as a positive control [Zabala, D.; Cartwright, J. W.; Roberts, D. M.; Law, B. J. C.; Song, L.; Samborskyy, M.; Leadlay, P. F.; Micklefield, J.; Challis, G. L. (2016) A flavin-dependent decarboxylase-dehydrogenase-monooxygenase assembles the warhead of α,β-epoxyketone proteasome inhibitors. J. Am. Chem. Soc. 138, 4342-4345.].

EpnF [2] = molecular target: T1, EpnF; assay: Enzyme kinetic analysis by SPE-MS/MS assay; type: biochemical; conditions: relative to 11n
Description: SPE-MS/MS analyses were carried out on an Agilent RapidFire 365 High-Throughput Mass Spectrometry System with 6495 triple quadrupole mass spectrometer. Determination of initial velocity: EpnF stock at 100 μM was diluted 10-fold in EpnF Buffer to a 10 μM working solution, which was further diluted to 8 concentrations (10-0.005 μM) in EpnF Buffer (intermediate volume 1350 μL, concentrations calculated for 1500 μL theoretical final volume corresponding to addition of substrate solutions below). The 8 EpnF enzyme dilutions were aliquoted (90 μL) into the corresponding 8 tubes of PCR tube strips (12 strips, one per time point; Thermo Scientific, AB-2000). The β-ketoacid 11 (20 mM in EtOH) was diluted to 10 μM in EpnF Buffer, then 10 μL of this solution was added to each of the tubes (1 μM final concentration, 100 μL final volume) to initiate the reaction. Samples were incubated in a heated shaker at 37° C. and 225 rpm for up to 120 min, and one tube strip was removed at each time point. Each tube was quenched with 5% formic acid in EpnF Buffer (100 μL), pipetted vigorously, and flash frozen on dry ice. Samples were thawed then centrifuged to precipitate protein and transferred to a conical-bottom 96-well plate (Thermo Scientific/Nunc, 249944) for SPE-MS/MS analysis. Measurement of Km and Vmax: Using the data from the initial velocity experiments above, an appropriate EpnF enzyme concentration was selected for each β-ketoacid 11 at which the rate of conversion to the epoxyketone 12 remained linear at 10 min (0.50 μM for 11n and 0.05 μM for all other substrates). Each substrate (20 mM in EtOH) was diluted to 1 mM in EpnF Buffer, then diluted to 8 concentrations (100-0.5 μM) in EpnF Buffer (intermediate volume 1350 μL, concentrations calculated for 1500 μL theoretical volume corresponding to addition of enzyme solutions below). The 8 substrate dilutions were aliquoted (90 μL) into the corresponding 8 tubes of PCR tube strips (12 strips, one per time point; Thermo Scientific, AB-2000). The EpnF enzyme stock solution was diluted in EpnF Buffer to the appropriate concentration for each substrate, then 10 μL of this solution was added to each of the tubes (100 μL final volume) to initiate the reaction. For the 0-min time point, 5% formic acid in EpnF Buffer was added to the β-ketoacid substrate before addition of the enzyme. Samples were incubated in a heated shaker at 37° C. and 225 rpm for up to 10 min, and one tube strip was removed at each time point. Each tube was quenched by addition of 5% formic acid in EpnF Buffer (100 μL), pipetted vigorously, and flash frozen on dry ice. Samples were thawed then centrifuged to precipitate proteins and the supernatants were transferred to a conical-bottom 96-well plate (Thermo Scientific/Nunc, 249944) for SPE-MS/MS analysis. Km and Vmax values for each substrate were calculated by Michaelis-Menten analysis. To obtain a quantitative assessment of EpnF substrate specificity, we developed a kinetic assay (10 min) using SPE-MS/MS (solid-phase extraction/triple quadrupole mass spectrometry; Agilent RapidFire 365 with 6495 MS) to enable direct detection of both substrates and products.

U266 cells = assay: In situ activation of β-ketoacid 11a by EpnF, cell viability, CellTitre-Glo, 48 h; type: cell-based; conditions: U266, 48 h
Description: For in situ activation of β-ketoacid 11a by EpnF, U266 cells were seeded in a 96-well plate as above, at 20,000 cells per well in […] RPMI. Recombinant EpnF (100 μM in EpnF Buffer) was diluted in RPMI to 5 μM concentration (300 μL final volume), then 10 μL of this enzyme solution was added to the plate wells to 0.5 μM EpnF final concentration. Stock solutions (20 mM) of β-ketoacid 11a and epoxyketone 12a in EtOH or DMSO, respectively, were diluted to 5% EtOH or DMSO in RPMI to provide working stocks at 1 mM. The working stocks were log-diluted to 1 mM-0.05 μM using RPMI containing 5% EtOH or 5% DMSO, respectively. Aliquots of compounds (10 μL) were added to the sample wells for final concentrations of 100-0.005 μM. Separate negative control wells were treated with 10 μL of 5% EtOH or 5% DMSO in RPMI (0.5% final concentration). The cells were incubated for 48 hr, then cell viability was measured with the CellTitre-Glo assay. Results of compound-treated wells were normalized to negative control wells.

T1 sequence (V5RMU9 entry or part of it): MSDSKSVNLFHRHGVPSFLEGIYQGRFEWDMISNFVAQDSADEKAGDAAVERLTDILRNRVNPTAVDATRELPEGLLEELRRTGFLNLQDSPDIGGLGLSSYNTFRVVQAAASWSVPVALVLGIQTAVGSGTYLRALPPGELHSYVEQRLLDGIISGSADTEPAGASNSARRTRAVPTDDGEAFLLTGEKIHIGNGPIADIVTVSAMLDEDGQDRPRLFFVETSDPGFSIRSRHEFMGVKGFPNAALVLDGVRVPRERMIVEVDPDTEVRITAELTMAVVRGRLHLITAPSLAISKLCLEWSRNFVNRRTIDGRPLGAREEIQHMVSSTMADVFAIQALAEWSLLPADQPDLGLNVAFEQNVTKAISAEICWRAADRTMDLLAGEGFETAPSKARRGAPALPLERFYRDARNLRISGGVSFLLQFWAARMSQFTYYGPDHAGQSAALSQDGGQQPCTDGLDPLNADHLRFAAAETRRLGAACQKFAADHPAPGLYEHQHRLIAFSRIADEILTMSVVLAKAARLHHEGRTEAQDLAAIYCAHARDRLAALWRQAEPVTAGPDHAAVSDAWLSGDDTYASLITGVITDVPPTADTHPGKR

For `CC(C)CCCCC(=O)N[C@@H](CO)C(=O)N[C@@H](CC(C)C)C(=O)C(C)(C)C(=O)O` [Compound 11a, (4S)-4-[(2S)-3-Hydroxy-2-(6-methylheptanamido)propanamido]-2,2,6-trimethyl-3-oxoheptanoic acid], the “EpnF-catalyzed formation of epoxyketone (epoxide capture)” value (EpnF [1]) was “levels comparable to that of the positive control”, the “converted more efficiently than 11n” value (EpnF [2]) was “≈ 20 fold” and the “cytotoxicity of β-ketoacid activated in situ” value (U266 cells; in presence of EpnF (0.5 μM)) was “cytotoxicity comparable to that of the corresponding isolated epoxyketone 12a”. The “no cytotoxicity at up to (concentration)” value (U266 cells; prodrug alone, absence of EpnF) was > 100 µM.
